Test results from patent publication US20250051526A1, “POLYMERS COMPRISING GLYCOLIPIDS AND METHODS FOR PRODUCING AND USING THE SAME” (priority 2021, published 2025).

Test: binding preference from monorhamnolipid-metal conditional stability constants for 26 metals
Conditions: metals of environmental concern (e.g., Cd, Pd, Hg) versus common soil and water cations
Description: They are considered “green” molecules due to their natural products from bacteria (e.g., Pseudomonas aeruginosa), biodegradability, and low toxicity. The present inventors have experimentally determined the monorhamnolipid-metal conditional stability constants ([…]) for 26 metals of interest.

With monorhamnolipid the “binding preference for metals of environmental concern over common soil and water cations” value was 6-8 orders of magnitude.
